Tests used:
[1] = molecular target: T1, PLA2 released from thrombin-stimulated rat platelets (Rattus norvegicus, UniProt P14423); assay: PLA2 inhibitory activity, rat platelet-derived PLA2; assay type: biochemical; details: for inhibitory concentrations of α-thielocin versus β-thielocin: isomers equilibrated in the reaction solution
T1 construct: PLA2 released from thrombin-stimulated rat platelets; from tissue
T1 sequence (P14423 22-146): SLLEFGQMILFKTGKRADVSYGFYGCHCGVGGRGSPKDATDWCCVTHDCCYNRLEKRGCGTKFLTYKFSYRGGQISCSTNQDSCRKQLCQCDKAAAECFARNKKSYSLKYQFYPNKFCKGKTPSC
Procedure: PLA2 inhibitory activities of thielocin were determined according to the following procedure.
PLA2 released from thrombin-stimulated rat platelets was prepared by immuno-affinity chromatography using antibody MD 7.1-coupled Sepharose (Murakami et. al, J. Biochem 104: 884-888, 1988). The standard assay conditions included, 250 μl of Tris-HCl buffer (100 mM, pH 7.4), CaCl2 (3 mM), 40 μM [^14 C] phosphatidylethanolamine and enzyme. The reaction was started by the addition of the enzyme solution. Following incubation at 37° C. for 20 min the reactions were terminated by addition of 1.25 ml of Dole's reagent (Dole, V. P. & H, Meinerts, J. Biol. Chem 235: 2595-2599, 1960). Then released free fatty acid was extracted, and counted in Liquiflour (Du Pont-New England Nuclear) to determine the release of the radioactivity. Inhibition activity is expressed as percent of enzyme control.

[2] = Solubility in solvents; assay type: physicochemical
[3] = molecular target: T2, PLA2 derived from porcine pancreas (Sus scrofa, UniProt P00592); assay: PLA2 inhibitory activity, porcine pancreas-derived PLA2; assay type: biochemical; details: read-out: concentration required for exhibiting 50 % inhibitory activity
T2 construct: porcine-derived PLA2; from tissue; host or cells: porcine pancreas

[4] = tested on: snake venom-derived PLA2; assay: PLA2 inhibitory activity, snake venom-derived PLA2; assay type: biochemical

T2 sequence (P00592 23-146): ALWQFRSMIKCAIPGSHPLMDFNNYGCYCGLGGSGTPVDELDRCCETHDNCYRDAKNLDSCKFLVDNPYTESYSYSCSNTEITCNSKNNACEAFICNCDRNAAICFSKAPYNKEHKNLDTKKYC

Row | Structure (SMILES) | inhibitory concentrations of α-thielocin versus β-thielocin [1] | Solubility ([2]; acetone) | Solubility ([2]; acetonitrile) | Solubility ([2]; chloroform) | Solubility ([2]; dimethylsulfoxide) | Solubility ([2]; ethanol) | Solubility ([2]; ethyl acetate) | Solubility ([2]; ethyl ether) | Solubility ([2]; hexane) | Solubility ([2]; methanol) | Solubility ([2]; petroleum ether) | Solubility ([2]; water) | IC50 ([1]; rat platelet-derived PLA2, [14C]phosphatidylethanolamine substrate, 37° C., 20 min, read-out: concentration required for exhibiting 50 % inhibitory activity) | IC50 [3] | concentration required for exhibiting 50 % inhibitory activity [4]
1 | COc1c(C)c(OC(=O)c2c(C)c(C)c(OC(=O)C3=C(C)C(C)(O)C4(O)Oc5c(C)c(OC)c(C(=O)Oc6c(C)c(C)c(C(=O)O)c(OC)c6C)c(C)c5CC4(C)C3=O)c(C)c2OC)c(C)c(C)c1C(=O)O (stereo not drawn) [Thielocin α, α-thielocin] | not distinguished | Soluble | Soluble | Soluble | Soluble | slightly soluble | Soluble | sparingly soluble or insoluble | sparingly soluble or insoluble | slightly soluble | sparingly soluble or insoluble | sparingly soluble or insoluble | – | – | –
2 | COc1c(C)c(OC(=O)c2c(C)c(C)c(OC(=O)C3=C(C)C(C)(O)C4(O)Oc5c(C)c(OC)c(C(=O)Oc6c(C)c(C)c(C(=O)O)c(OC)c6C)c(C)c5CC4(C)C3=O)c(C)c2OC)c(C)c(C)c1C(=O)O (stereo not drawn) [Thielocin β, β-thielocin] | not distinguished | slightly soluble | slightly soluble | slightly soluble | Soluble | slightly soluble | slightly soluble | sparingly soluble or insoluble | sparingly soluble or insoluble | slightly soluble | sparingly soluble or insoluble | sparingly soluble or insoluble | – | – | –
3 | COc1c(C)c(OC(=O)c2c(C)c(C)c(OC(=O)C3=C(C)C(C)(O)C4(O)Oc5c(C)c(OC)c(C(=O)Oc6c(C)c(C)c(C(=O)O)c(OC)c6C)c(C)c5CC4(C)C3=O)c(C)c2OC)c(C)c(C)c1C(=O)O (stereo not drawn) [thielocin] | – | – | – | – | – | – | – | – | – | – | – | – | 0.00501 µM | 47.1 µM | 10 µg/mL

Reference: patent US5011952A, “Phospholipase A2 inhibitor” (Shionogi & Co., Ltd., priority 1989, dated 1991)
